The term IC50 denotes the concentration that inhibits the measured activity by half.

Each structure is given as a SMILES string.

The values below come from BindingDB's records for doi:10.1021/jm000023o (Cocensys, 2000).

The nature of assay [1]: Concentration required for 50% Inhibition of responses at cloned NR1A/2AB N-methyl-D-aspartate (NMDA) expressed in Xenopus oocytes.
Experiment in assay [2]: as above
This is another data set of the same source.

In the case of `C(#Cc1ccc2cc[nH]c2c1)CCN1CCC(Cc2ccccc2)CC1` [6-[4-(4-Benzyl-piperidin-1-yl)-but-1-ynyl]-1H-indole], the IC50 in assay [1] came out at 6.1 µM.

For `Oc1ccc(C#CCN2CCC(Cc3ccccc3)CC2)cc1` [4-[3-(4-Benzyl-piperidin-1-yl)-prop-1-ynyl]-phenol], in assay [2], the midpoint of inhibition, the IC50, lay at 0.1 µM.
